Measurements taken from patent US10842749B2, “Compositions and methods of treating therapy resistant cancer and uses thereof” (priority 2012, dated 2020).

Key:
MDA-MB-231/MDR cells = assay: Cell viability of MDR1-transfected MDA-MB-231/MDR cells; format: cell-based, human; details: cell viability 72 hours after treatment
Protocol: (§1) FIGS. 2A-2H show vesicular transport of pDox in tumor cells and effective killing of tumor cells carrying an overexpressed multidrug resistance gene mediated by pDox. […] The presence of doxorubicin (red) in subcellular organelle was visualized by fluorescence microscopy. Nuclei were stained blue with DAPI and late endosomes/lysosomes were stained green with LysoTracker. Nuclear accumulation could be detected as early as 15 minutes after treatment of cells with Dox, while co-localization of Dox with LysoTracker was apparent in pDox treated cells 15 minutes and 1 hour after treatment. […] The cells were sensitive to pDox, but resistant to treatment with free Dox. FIG. 2D depicts fluorescence images of subcellular organelles. Nuclei were stained in blue DAPI and lysosomes were stained in green with LysoTracker. Images of Dox, nuclei and lysosomes were merged to show subcellular localization of Dox at different time points.
Many breast cancer patients are resistant to chemotherapy due to drug efflux. About 25-50% of previously untreated breast cancers express the MDR1 gene encoding p-glycoprotein, one of the drug efflux pump proteins^17. Overexpression of MDR1 has also been attributed to acquired resistance to anthracyclines and cross-resistance to other chemotherapy drugs in the clinic^15. […]

MDA-MB-231 cells = assay: Intracellular trafficking of Dox and pDox; format: cell-based, human; details: fluorescence microscopy
Protocol: as §1, with “Images of Dox, nuclei and lysosomes were merged to show subcellular localization of Dox at different time points.” left out
Applicants conducted studies to compare cellular uptake and subcellular trafficking of free Dox and pDox nanoparticles in MDA-MB-231 cells. […] However, no nuclear accumulation was detected in the pDox-treated cells at the same time (FIG. 2A and FIG. 2D). The red fluorescence from pDox could be co-localized with the green LysoTracker-positive subcellular organelles beginning at 15 minutes, and reached a high level one hour after pDox treatment (FIG. 2A and FIG. 2D), indicating pDox entered tumor cells via vesicular transport. […]

[1] = system: MDA-MB-231 human breast cancer lung metastasis; assay: Murine model of MDA-MB-231 human breast cancer lung metastasis; format: in vivo, nude mice; details: Dox 3 mg/kg weekly, 6 weeks
Protocol: (§2) Applicants selected the murine model of MDA-MB-231 human breast cancer lung metastasis, widely used to study mechanism of pathology and for drug development^37-39, to evaluate therapeutic efficacy of porous silicon/pDox. […] Applicants treated the tumor-bearing mice with free pDox, porous silicon/pDox, and the clinically available drugs doxorubicin and Doxil, beginning one week after tumor inoculation and lasting for 6 weeks. Drugs were dosed biweekly at 6 mg/kg to mice in all treatment groups (10 mice per group) except free Dox.

4T1 lung metastasis [2] = assay: 4T1 lung metastasis model, pilot study (two treatments); format: in vivo, BALB/c mice; details: 6 mg/kg on day of surgery and 10 days later
Source text: All mice were sacrificed three weeks after the first treatment, and lung tissues were examined for tumor metastasis. […] The arrows indicate tumor nodules in the lung (FIG. 5F-2).
Thus the 4T1 syngeneic tumor mice represent a second Triple Negative Breast Cancer (TNBC) tumor model in this study. When inoculated into the mammary gland fat pad of BALB/c mice, 4T1 tumor cells formed rapidly growing primary tumors. If left untreated, all of the mice would eventually develop lung metastasis from primary tumors. In a pilot study, surgical removal of primary tumors (about 400 mm^3 in size) was performed, and then PBS, Dox, pDox, or Porous silicon/pDox was administered once immediately after surgery and again 10 days post-surgery.

[3] = Heart H&E staining and body weight in treated tumor mice
Protocol: FIGS. 4A-4C show H&E staining of heart tissues in mice treated with 6 mg/kg free Dox, Doxil, or porous silicon/pDox for 6 weeks.
as §2

4T1 lung metastasis [4] = assay: 4T1 lung metastasis model, follow-up study (weekly x 4 after surgery)
Protocol: 4T1 tumor cells were inoculated in the fourth mammary gland fat pad of female BALB/c mice. The primary tumors were surgically removed when they reached 250-300 mm3, and mice (n=10 mice/group) were treated weekly with 6 mg/kg Dox, Doxil, pDox, or Porous silicon/pDox for four consecutive weeks. Tumor growth was monitored by tracking bioluminescent intensity with the Xenogene IVIS-200 imaging system.
To generate the mouse 4T1 lung metastasis model, BALB/c mice were inoculated with 4T1 cells (5×10^4 cells/mouse) into the mammary gland fat pad. […] In the follow-up study, 4T1 cells that were engineered to express luciferase and GFP, and were inoculated into the mammary gland fat pads of female BALB/c mice. The primary tumors were surgically removed once they reached 250-300 mm^3. Mice were treated with 6 mg/kg of the therapeutic agents weekly for 4 weeks, and subsequently maintained to assess survival benefit from treatments.
To evaluate drug dosing requirements and sustainability after administration, Applicants applied a different drug regimen to BALB/c mice bearing 4T1 tumors. Applicants performed complete surgical removal of the primary tumors once they reached 250-300 mm3, and confirmed that the extraction was thorough by the lack of bioluminescence from the luciferase- and GFP-bearing mammary gland fat pads (FIG. 5A). […]

[5] = Tissue distribution of Dox by HPLC in MDA-MB-231 lung metastasis mice
Protocol: They were sacrificed 1 hour, 1 day, or 7 days later. Dox concentration in major organs was analyzed by HPLC.
Quantitation of doxorubicin was performed using Daunorubicin (Dau, Sigma) as an internal standard^49. Briefly, tissues were homogenized in PBS (100 mg tissue/330 μL PBS), and then mixed with 10 μL Dau (50 μg/mL). A 4-fold volume of the extraction solution containing chloroform and methanol (3/1, v/v) was subsequently added. The mixture was vortexed for 1 minute, and centrifuged at 13,000 rpm for 10 minutes to separate the aqueous and organic phases. The organic phase was collected, and the solvent was evaporated at 25° C. under a flow of nitrogen. The extract was dissolved in 100 μL methanol, and a 10 μL aliquot was used for HPLC analysis.

COc1cccc2c1C(=O)c1c(O)c3c(c(O)c1C2=O)C[C@@](O)(C(=O)CO)C[C@@H]3O[C@H]1C[C@H](N)[C@H](O)[C@H](C)O1 [Dox, doxorubicin]
sensitivity of MDR1-expressing cells to treatment (MDA-MB-231/MDR cells): resistant
time of nuclear accumulation after addition of drug (MDA-MB-231 cells): 15 min
extension of median survival over control groups ([1]; pDox 6 mg/kg biweekly): 2 weeks
Median survival ([1]; Doxil, pDox, MSV/pDox 6 mg/kg biweekly, tail vein): 98.5 days
lung tumor nodules / metastasis (4T1 lung metastasis [2]): multiple, large tumor nodules in the lung
heart histology (H&E) ([3]; 6 mg/kg biweekly): deformation of myocardial fibers
body weight change ([3]; Dox 3 mg/kg weekly, Doxil, porous silicon/pDox 6 mg/kg biweekly): initial drop in body weight but recovered shortly
extension of median survival over the PBS control (4T1 lung metastasis [4]; 6 mg/kg weekly for 4 weeks): 13 days
Median survival after tumor inoculation (4T1 lung metastasis [4]; 6 mg/kg weekly for 4 weeks after surgical removal of primary tumor): 62 days
Dox concentration in the heart ([5]; 6 mg/kg i.v., one hour after dosing): over 10 μg/g organ
plasma Dox ([5]; 1 hour post-dosing): barely detectable
